Tests used:
[1] = Cytotoxicity in HepG2.2.15 cells (CellTiter Glo); assay type: cell-based; settings: human, highest concentration 150 μM
Procedure: Test 2: Cytotoxicity and Selectivity Index
Methods of Testing Cytotoxicity and Selectivity Index
The serial diluted compound was added to a 384 wells plate at 50 μL HepG2.2.15 cell per well (3000 cells per well), the highest final concentration in the experiment is 150 μM (200 fold dilution). The plate was cultured at 37° C. in an incubator with C02 for 4 days, and cytotoxicity of the compound was detected using CellTiter Glo agent.
The cytotoxicity of the compound was calculated using the following formulate, cytotoxicity (%)=100−(detection value/mean of DMSO control wells values×100). CC50 values were calculated by a four parametric nonlinear regression model using Graphpad Prism 5 software to manage concentration−cytotoxicity (%). […]

HBV = test: Anti HBV activity in vitro, viral DNA from HepG2.2.15 cells quantified by qPCR; assay type: cell-based; settings: Hepatitis B virus, qPCR of viral DNA in supernatant, read-out: EC50 against HBV replication
Procedure: Test 1: Test Method of EC50 of Anti HBV
HBV Cell Line and Culture Conditions
HepG2.2.15 (SELLS, PNAS, 1987 and SELLS, JV, 1988) chromosomes have an integrated complete HBV genome, and stably express viral RNA and viral protein. HepG2.2.15 cells can secrete mature HBV particles, HBsAg and HBeAg to medium. HepG2.2.15 cells were cultured in DMEM containing 10% fetal bovine serum, 100 U/mL penicillin, 100 U/mL streptomycin, 1% non essential amino acid, 1 mM sodium pyruvate and 300 µg/mL G418.
Viral particles DNA secreted from HepG2.2.15 cells can be quantified by qPCR, and the effect of the compound on viral replication can be detected.
Test of Anti HBV Activity In Vitro
8000 HepG 2.2.15 cells per well were seeded into a 96-well plate, the plate was cultured at 37° C. and 5% CO2 for 3 days till the cells grew to full wells. Old liquid medium can be removed and replaced with new medium (200 μL) on day 0.
Formulating the compound and treating the cells in the experiment of anti virus: the compound was dissolved in DMSO to a concentration of 30 mM, and then the compound solution was diluted with DMSO to a concentration of […], and then eight dilutions at 4 fold were performed, the highest concentration is 800 μM. The serial diluted compound was added to the above plate at 1 μL per well, the highest final concentration in the experiment is 4 μM (200 fold dilution). TDF (tenofovir dipiroxil fumarate, Selleck, Cat S1400) has a highest concentration of 4 μM as a positive control. 1 μL of DMSO was added in to the positive control well at a final concentration of 0.5%, TDF was added in to the positive control well at a final concentration of 1 μM.
Detection of Viral Genomic DNA by qPCR
Primer: HBV-For-202, […]; HBV-Rev-315, […]. Copies of virus can be calculated using a standard curve plotted by using plasmid containing HBV genome and using SYBR Premix Ex Taq II Takara DRR081S kit and 1 μL cell culture supernatant as a template. EC50 values of the compound on viral replication were calculated by a four parametric nonlinear regression model using Graphpad Prism 5 software to manage concentration—viral copy number.

SMILES: COC(=O)C1=C(CN2CCN3C(=O)N(Cc4ccc(CC(=O)O)cc4)C[C@@H]3C2)NC(c2nccs2)=N[C@H]1c1ccc(F)cc1Cl [Example 21, 2-(4-(((S)-7-(((R)-6-(2-chloro-4-fluorophenyl)-5-(methoxycarbonyl)-2-(thiazol-2-yl)-3,6-dihydropyrimidin-4-yl)methyl)-3-oxohexahydroimidazo[1,5-a]pyrazin-2(3H)-yl)methyl)phenyl)acetic Acid]
- CC50 at 4 days [1]: 110000 nM
- EC50 (HBV): 22 nM

SMILES: CCOC(=O)C1=C(CN2CCN3C(=O)N(c4ccc(CCC(=O)O)cc4)C[C@@H]3C2)NC(c2nccs2)=N[C@H]1c1ccc(F)cc1Br [Example 22, 3-(4-((S)-7-(((R)-6-(2-bromo-4-fluorophenyl)-5-(ethoxycarbonyl)-2-(thiazol-2-yl)-3,6-dihydropyrimidin-4-yl)methyl)-3-oxohexahydroimidazo[1,5-a]pyrazin-2(3H)-yl)phenyl)prop ionic Acid]
- CC50 at 4 days [1]: > 150000 nM
- EC50 (HBV): 5 nM

SMILES: CCOC(=O)C1=C(CN2CCN3C(=O)N(c4ccc(CCC(=O)O)cc4)C[C@@H]3C2)NC(c2nccs2)=N[C@H]1c1ccc(F)cc1Cl [Example 23, 3-(4-((S)-7-(((R)-6-(2-chloro-4-fluorophenyl)-5-(ethoxycarbonyl)-2-(thiazol-2-yl)-3,6-dihydropyrimidin-4-yl)methyl)-3-oxohexahydroimidazo[1,5-a]pyrazin-2(3H)-yl)phenyl)prop ionic Acid]
- CC50 at 4 days [1]: > 150000 nM
- EC50 (HBV): 7 nM

SMILES: COC(=O)C1=C(CN2CCN3C(=O)N(c4ccc(CCC(=O)O)cc4)C[C@@H]3C2)NC(c2nccs2)=N[C@H]1c1ccc(Cl)cc1Cl [Example 24, 3-(4-((S)-7-(((R)-6-(2,4-dichlorophenyl)-5-(methoxycarbonyl)-2-(thiazol-2-yl)-3,6-dihydropyrimidin-4-yl)methyl)-3-oxohexahydroimidazo[1,5-a]pyrazin-2 (3H)-yl)phenyl)propionic Acid]
- CC50 at 4 days [1]: > 150000 nM
- EC50 (HBV): 4 nM

SMILES: COC(=O)CCc1ccc(N2C[C@@H]3CN(CC4=C(C(=O)OC)[C@H](c5ccc(F)cc5Cl)N=C(c5nccs5)N4)CCN3C2=O)cc1 [Example 25, (R)-methyl 4-(2-chloro-4-fluorophenyl)-6-(((S)-2-(4-(3-methoxy-3-oxopropyl)phenyl)-3-oxohexahydroimidazo[1,5-a]pyrazin-7(1H)-yl)methyl)-2-(thiazol-2-yl)-1,4-dihydropyrimidine-5-carboxylate]
- CC50 at 4 days [1]: > 150000 nM
- EC50 (HBV): 5 nM

SMILES: CCOC(=O)C1=C(CN2CCN3C(=O)N(c4ccc(CC(=O)O)cc4)C[C@@H]3C2)NC(c2nccs2)=N[C@H]1c1ccc(F)cc1Br [Example 26, 2-(4-((S)-7-(((R)-6-(2-bromo-4-fluorophenyl)-5-(ethoxycarbonyl)-2-(thiazol-2-yl)-3,6-dihydropyrimidin-4-yl)methyl)-3-oxohexahydroimidazo[1,5-a]pyrazin-2(3H)-yl)phenyl)acetic Acid]
- CC50 at 4 days [1]: > 150000 nM
- EC50 (HBV): 8 nM

SMILES: COC(=O)C1=C(CN2CCN3C(=O)N(c4ccc(CC(=O)O)cc4)C[C@@H]3C2)NC(c2nccs2)=N[C@H]1c1ccc(Cl)cc1Cl [Example 27, 2-(4-((S)-7-(((R)-6-(2,4-dichlorophenyl)-5-(methoxycarbonyl)-2-(thiazol-2-yl)-3,6-dihydropyrimidin-4-yl)methyl)-3-oxohexahydroimidazo[,5-a]pyrazin-2(3H)-yl)phenyl)acetic Acid]
- CC50 at 4 days [1]: > 150000 nM
- EC50 (HBV): 7 nM

SMILES: CCOC(=O)C1=C(CN2CCN3C(=O)N(c4ccc(CC(C)(C)C(=O)O)cc4)C[C@@H]3C2)NC(c2nccs2)=N[C@H]1c1ccc(F)cc1Br [Example 28]
- CC50 at 4 days [1]: > 150000 nM
- EC50 (HBV): 5 nM

SMILES: CCOC(=O)C1=C(CN2CCN3C(=O)N(c4ccc(CC(C)(C)C(=O)O)cc4)C[C@@H]3C2)NC(c2nccs2)=N[C@H]1c1ccc(F)cc1Cl [Example 29, 3-(4-((S)-7-(((R)-6-(2-chloro-4-fluorophenyl)-5-(ethoxycarbonyl)-2-(thiazol-2-yl)-3,6-dihydropyrimidin-4-yl)methyl)-3-oxohexahydroimidazo[1,5-a]pyrazin-2(3H)-yl)phenyl)-2,2-dimethylpropionic Acid]
- CC50 at 4 days [1]: > 150000 nM
- EC50 (HBV): 6 nM

SMILES: COC(=O)C1=C(CN2CCN3C(=O)N(c4ccc(C(C)=O)cc4)C[C@@H]3C2)NC(c2nccs2)=N[C@H]1c1ccc(F)cc1Cl [Example 31, (R)-methyl 6-(((S)-2-(4-acetylphenyl)-3-oxohexahydroimidazo[1,5-a]pyrazin-7(1H)-yl)methyl)-4-(2-chloro-4-fluorophenyl)-2-(thiazol-2-yl)-1,4-dihydropyrimidine-5-carboxy late]
- CC50 at 4 days [1]: > 150000 nM
- EC50 (HBV): 4 nM

SMILES: COC(=O)C1=C(CN2CCN3C(=O)N(c4ccc(C(C)=O)cc4F)C[C@@H]3C2)NC(c2nccs2)=N[C@H]1c1ccc(F)cc1Cl [Example 32, (R)-methyl 6-(((S)-2-(4-acetyl-2fluorophenyl)-3-oxohexahydroimidazo[1,5-a]pyrazin-7(1H)-yl)methyl)-4-(2-chloro-4-fluorophenyl)-2-(thiazol-2-yl)-1,4-dihydropyrimidine-5-carboxylate]
- CC50 at 4 days [1]: > 150000 nM
- EC50 (HBV): 6 nM

SMILES: COC(=O)C1=C(CN2CCN3C(=O)N(c4ccc(C(C)(C)C(=O)O)cc4F)C[C@@H]3C2)NC(c2nccs2)=N[C@H]1c1ccc(F)cc1Cl [Example 33, 2-(4-((S)-7-(((R)-6-(2-chloro-4-fluorophenyl)-5-(methoxycarbonyl)-2-(thiazol-2-yl)-3,6-dihydropyrimidin-4-yl)methyl)-3-oxohexahydroimidazo[1,5-a]pyrazin-2(3H)-yl)-3-fluorophenyl)-2-methylpropionic Acid]
- CC50 at 4 days [1]: > 150000 nM
- EC50 (HBV): 25 nM

SMILES: COC(=O)C1=C(CN2CCN3C(=O)N(c4ccc(CCC(=O)O)cc4F)C[C@@H]3C2)NC(c2nccs2)=N[C@H]1c1ccc(F)cc1Cl [Example 34, 3-(4-((S)-7-(((R)-6-(2-chloro-4-fluorophenyl)-5-(methoxycarbonyl)-2-(thiazol-2-yl)-3,6-dihydropyrimidin-4-yl)methyl)-3-oxohexahydroimidazo[1,5-a]pyrazin-2(3H)-yl)-3-fluorophenyl)propionic Acid]
- CC50 at 4 days [1]: > 150000 nM
- EC50 (HBV): 16 nM

SMILES: COC(=O)C1=C(CN2CCN3C(=O)N(c4cccc(CCC(=O)O)c4)C[C@@H]3C2)NC(c2nccs2)=N[C@H]1c1ccc(F)cc1Cl [Example 37, 3-(3-((S)-7-(((R)-6-(2-chloro-4-fluorophenyl)-5-(methoxycarbonyl)-2-(thiazol-2-yl)-3,6-dihydropyrimidin-4-yl)methyl)-3-oxohexahydroimidazo[1,5-a]pyrazin-2(3H)-yl)phenyl)propionic Acid]
- CC50 at 4 days [1]: > 150000 nM
- EC50 (HBV): 5 nM

SMILES: COC(=O)C1=C(CN2CCN3C(=O)N(c4cccc(C(C)(C)C(=O)O)c4)C[C@@H]3C2)NC(c2nccs2)=N[C@H]1c1ccc(F)cc1Cl [Example 38, 2-(3-((S)-7-(((R)-6-(2-chloro-4-fluorophenyl)-5-(methoxycarbonyl)-2-(thiazol-2-yl)-3,6-dihydropyrimidin-4-yl)methyl)-3-oxohexahydroimidazo[1,5-a]pyrazin-2(3H)-yl)phenyl)-2-methylpropionic Acid]
- CC50 at 4 days [1]: > 150000 nM
- EC50 (HBV): 15 nM

SMILES: COC(=O)C1=C(CN2CCN3C(=O)N(c4cccc(CC(=O)O)c4)C[C@@H]3C2)NC(c2nccs2)=N[C@H]1c1ccc(F)cc1Cl [Example 39, 2-(3-((S)-7-(((R)-6-(2-chloro-4-fluorophenyl)-5-(methoxycarbonyl)-2-(thiazol-2-yl)-3,6-dihydropyrimidin-4-yl)methyl)-3-oxohexahydroimidazo[1,5-a]pyrazin-2(3H)-yl)phenyl) acetic Acid]
- CC50 at 4 days [1]: > 150000 nM
- EC50 (HBV): 29 nM

SMILES: COC(=O)C1=C(CN2CCN3C(=O)N(c4ccc(OC(C)(C)C(=O)O)cc4)C[C@@H]3C2)NC(c2nccs2)=N[C@H]1c1ccc(F)cc1Cl [Example 40, 2-(4-((S)-7-(((R)-6-(2-chloro-4-fluorophenyl)-5-(methoxycarbonyl)-2-(thiazol-2-yl)-3,6-dihydropyrimidin-4-yl)methyl)-3-oxohexahydroimidazo[1,5-a]pyrazin-2(3H)-yl)phenoxy)-2-methylpropionic Acid]
- CC50 at 4 days [1]: > 150000 nM
- EC50 (HBV): 71 nM
